Some test systems named below: EKVX NSCLC; IGROV1 ovarian; SF-295 CNS; U251 CNS; A549 NSCLC; HL-60(TB) leukemia; ACHN renal; TK-10 renal; CAKI-1 renal; NCI-H522 lung.
Assay in all cases: NCI tumour cell line growth inhibition, 48 h

The structures appear in SMILES notation.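 Briefly, cells in 96-well plates were exposed to five compound concentrations for 48 h, and endpoints were estimated by linear interpolation. GI50 marks 50% less growth. The concentration for full growth arrest is given as TGI.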

Regarding `O=C1Nc2ccccc2SC1C1SC(=S)N(Cc2ccccc2)C1=O` (centres undefined), the GI50 with EKVX NSCLC was 21.7 µM; in the test on IGROV1 ovarian, 3.37 µM; with SF-295 CNS it was 10.2 µM; in the test with U251 CNS it was 3.14 µM; in the test on A549 NSCLC, 16 µM; in the test with HL-60(TB) leukemia, 3.46 µM. Besides, the GI50 with ACHN renal is 7.41 µM; with TK-10 renal, 5.71 µM; in the test with CAKI-1 renal it was 4.53 µM; in the test on NCI-H522 lung, 5.29 µM. Besides, the TGI in the test with EKVX NSCLC is 53.2 µM; in the test on IGROV1 ovarian, 16.5 µM; in the test with SF-295 CNS, 40.2 µM; in the test with U251 CNS it was 12.2 µM; in the test on A549 NSCLC it was above 51.4 µM; with HL-60(TB) leukemia it was 32.2 µM. Also, the TGI turned out to be 20.3 µM with ACHN renal, 22 µM with TK-10 renal, 17.6 µM in the test with CAKI-1 renal and 19.1 µM in the test on NCI-H522 lung.

Take `N/C(=N\C(=S)N1CCCCC1)N1CCCCC1`: the TGI with EKVX NSCLC, with IGROV1 ovarian, with SF-295 CNS, in the test on U251 CNS, with A549 NSCLC and in the test with HL-60(TB) leukemia was above 100 µM throughout. In addition, the TGI in the test on ACHN renal, in the test with TK-10 renal, in the test on CAKI-1 renal and with NCI-H522 lung was above 100 µM each time.

`Oc1cccc(C2SCc3nc4ccccc4n32)c1` (centres undefined): the TGI in the test with EKVX NSCLC, in the test on SF-295 CNS, with U251 CNS, in the test with A549 NSCLC, with HL-60(TB) leukemia and in the test with ACHN renal was above 100 µM each time. Further, the TGI in the test with TK-10 renal, in the test with CAKI-1 renal and in the test on NCI-H522 lung was above 100 µM each time.

As for `Cc1ccc(NC2=C(Cl)C(=O)c3nc(C)ccc3C2=O)cc1`, the GI50 was 1.55 µM in the test on EKVX NSCLC; 1.54 µM in the test on IGROV1 ovarian; 1.55 µM with SF-295 CNS; 1.31 µM in the test on U251 CNS; 1.81 µM in the test with A549 NSCLC; 1.98 µM in the test on HL-60(TB) leukemia. Moreover, the GI50 in the test on ACHN renal was 1.59 µM; in the test with TK-10 renal, 2.27 µM; with CAKI-1 renal, 1.36 µM; in the test on NCI-H522 lung, 1.88 µM. The TGI in the test on EKVX NSCLC came out at 2.92 µM; in the test on IGROV1 ovarian, 3.35 µM; in the test on SF-295 CNS, 2.95 µM; in the test with U251 CNS, 2.75 µM; with A549 NSCLC it was 4.39 µM; in the test on HL-60(TB) leukemia, 4.96 µM. For the same compound, the TGI in the test with ACHN renal came to 2.97 µM; in the test with TK-10 renal, 3.81 µM; with CAKI-1 renal it was 2.68 µM; with NCI-H522 lung it was 4.53 µM.

Take `Nc1cc(C(F)F)c(-c2nc(N3[C@@H]4CC[C@H]3COC4)nc(N3[C@@H]4CC[C@H]3COC4)n2)cn1`: the GI50 is 0.277 µM in the test with EKVX NSCLC; 0.146 µM with IGROV1 ovarian; 0.19 µM with SF-295 CNS; 0.501 µM with U251 CNS; 0.341 µM in the test on A549 NSCLC; 2.29 µM in the test on HL-60(TB) leukemia. The GI50 in the test on ACHN renal is 0.302 µM; in the test on TK-10 renal, 0.156 µM; in the test with CAKI-1 renal it was 0.188 µM; in the test on NCI-H522 lung it was 0.295 µM. The TGI with EKVX NSCLC is 6.61 µM; with IGROV1 ovarian, 1.54 µM; in the test on SF-295 CNS, 1.78 µM; in the test with U251 CNS, above 100 µM; with A549 NSCLC, above 100 µM; in the test on HL-60(TB) leukemia it was above 100 µM. The TGI in the test with ACHN renal was above 100 µM; with TK-10 renal, 3.22 µM; in the test on CAKI-1 renal, 3.21 µM; with NCI-H522 lung it was above 100 µM.

As to `O=C(c1cccs1)c1c(C(F)(F)F)n([O-])c2cc(F)c(F)cc2[n+]1=O`, the GI50 with EKVX NSCLC is 2.44 µM; in the test with IGROV1 ovarian, 1.86 µM; in the test with SF-295 CNS, 3.71 µM; with U251 CNS, 1.02 µM; in the test with A549 NSCLC it was 6.16 µM; with HL-60(TB) leukemia it was 0.904 µM. In addition, the GI50 with ACHN renal is 0.419 µM; with TK-10 renal, 1.36 µM; in the test on CAKI-1 renal, 1.25 µM; in the test with NCI-H522 lung, 1.84 µM. In addition, the TGI was determined as 6.73 µM in the test with EKVX NSCLC; 3.92 µM in the test with IGROV1 ovarian; 7.3 µM with SF-295 CNS; 2.72 µM with U251 CNS; 12.5 µM in the test with A549 NSCLC; 5.65 µM in the test on HL-60(TB) leukemia. Moreover, the TGI in the test on ACHN renal was 1.4 µM; with TK-10 renal, 3.99 µM; in the test on CAKI-1 renal, 4 µM; in the test on NCI-H522 lung, 3.13 µM.

In the case of `O=C1OC(c2ccc([N+](=O)[O-])cc2)=N/C1=C\c1ccc(O)cc1`, the TGI in the test on EKVX NSCLC, in the test on IGROV1 ovarian, in the test with SF-295 CNS, in the test on U251 CNS, with A549 NSCLC and in the test on HL-60(TB) leukemia was above 100 µM throughout. Besides, the TGI with ACHN renal, in the test with TK-10 renal, with CAKI-1 renal and with NCI-H522 lung was above 100 µM throughout.

As to `O=C(Nc1ccc(-n2cc(-c3ccncc3)c(-c3ccc(Cl)c(O)c3)n2)cc1)c1cc(Cl)cc(Cl)c1`, the GI50 is 50.7 µM with EKVX NSCLC; above 100 µM in the test on IGROV1 ovarian; 0.738 µM in the test on SF-295 CNS; 3.93 µM in the test with U251 CNS; above 28 µM with A549 NSCLC; 4.41 µM in the test with HL-60(TB) leukemia. Besides, the GI50 in the test with ACHN renal was 10.4 µM; in the test with TK-10 renal, above 19.9 µM; in the test with CAKI-1 renal it was 2.03 µM; in the test with NCI-H522 lung it was 2.31 µM. The TGI with EKVX NSCLC was above 100 µM; in the test with IGROV1 ovarian it was above 100 µM; with SF-295 CNS, 2.79 µM; in the test on U251 CNS it was above 100 µM; in the test on A549 NSCLC, above 100 µM; in the test with HL-60(TB) leukemia, above 31.6 µM. Besides, the TGI is above 100 µM with ACHN renal, above 100 µM in the test with TK-10 renal, above 24.6 µM in the test with CAKI-1 renal and 7.94 µM in the test on NCI-H522 lung.

The values are drawn from PubChem BioAssay (NCI).
